Results reported in patent publication US11014934B2, “Antiseptic drug” (AO “TATKHIMFARMPREPARATY”, priority 2017, dated 2021).
Read-outs that look alike come from different tables or passages of the source.

How the values were obtained:
Test in all cases: MIC, serial dilutions in Müller-Hinton broth
Type in all cases: cell-based
[1] = tested on: S. aureus 1130 MRSA
Procedure: (§1) A comparative assessment of the spectrum of antibacterial action was carried out on archival and clinical strains of gram-positive and gram-negative microorganisms in accordance with the [Opredeleniye chuvstvitel'nosti mikroorganizmov k antibakterial'nym preparatam (Metodicheskiye ukazaniya MUK 4.2.1890-04). Utverzhdeny i vvedeny v deystviye Glavnym gosudarstvennym sanitarnym vrachom Rossiyskoy Federatsii G. G. Onishchenko 04.03.2004 g. Determination of the sensitivity of microorganisms to antibacterial drugs (Guidelines MUK 4.2.1890-04). Approved and put into effect by the Chief State Sanitary Doctor of the Russian Federation G. G. Onishchenko on 4 Mar. 2004].
(§2) The value of the minimum inhibitory concentration (MIC) was determined by the method of serial dilutions on Müller-Hinton broth using 96-well sterile plates. Two-fold dilutions of the test substances in a nutrient medium were prepared. The final concentrations were 1-128 ug/ml. The growth of cultures was assessed visually, comparing the growth of microorganisms in the presence of test compounds with the growth of culture without them. […] The first lowest concentration of the studied substance (from a series of consecutive dilutions), where bacterial growth is not visually determined, is considered to be the minimum inhibitory concentration (MIC). MIC was determined by the method of serial dilutions in broth with increment=2, so the differences of neighboring dilutions are not considered to be significant. In each experience there is a positive (broth with growing culture) and a negative (broth without growing culture) control.
(§3) To determine the MIC, 10 μl of culture medium was taken from those wells in which growth was not observed, and inoculation was performed on a dense Müller-Hinton broth. For the preparation of the inoculum, a pure, daily culture of gram-positive and gram-negative microorganisms grown on a dense nutrient medium was used. Nutrient medium is Müller-Hinton broth, which was prepared from dry media (Müller-Hinton broth, Acumedia, Baltimore), cultivation was carried out on agarized Müller-Hinton broth, including an additional 2% agar. The media were autoclaved at 121° C. for 15 minutes. In a sterile isotonic solution of sodium chloride, a suspension of microorganisms was prepared, adjusting the inoculum density to 0.5 according to the McFarland standard (1.5·10^8 CFU/ml). Then, the resulting inoculum was diluted to a concentration of 10^7 CFU/ml with Müller-Hinton broth. The inoculum was used within 15 minutes after preparation; the purity of the bacterial strains was monitored before each experiment.
(§4) 100 μl of Müller-Hinton broth was added to the wells of each plate; The tested substance was introduced into the first well at a concentration of 128 μg/ml in a volume of 100 μl and its concentration was adjusted to 0.5 μg/ml by consecutive two-fold dilution. Then, the prepared inoculum (100 μI) was added to each well, thereby diluting twice the concentration of the studied compounds. […] In addition, the purity of nutrient media and solvents was monitored. The plates were incubated in a thermostat at 37° C. for 24 hours. The growth of cultures was assessed visually, comparing the growth of microorganisms in the presence of test compounds with the growth of culture without them.
(§5) For the MIC was taken the minimum concentration of the studied compounds, providing complete suppression of the visible growth of the studied strains of microorganisms. The maximum value obtained in three independent experiments was taken as the MIC of the compound.

[2] = tested on: E. faecium 27
Procedure: as §1, §2, §3, §4, §5

[3] = tested on: S. aureus 1053a
Procedure: as §1, §2, §3, §4, §5

[4] = tested on: S. aureus 1145 MRSA
Procedure: as §1, §2, §3, §4, §5

[5] = tested on: S. aureus 1134 MRSA
Procedure: as §1, §2, §3, §4, §5

[6] = tested on: S. intermedius 1143 MRSA
Procedure: as §1, §2, §3, §4, §5

[7] = tested on: Kl. pneumoniae 645 PR
Procedure: as §1, §2, §3, §4, §5

[8] = tested on: Pseudomonas spp. 5
Procedure: as §1, §2, §3, §4, §5

[9] = tested on: Moraxella sp. 713
Procedure: as §1, §2, §3, §4, §5

[10] = tested on: S. aureus 2020 MRSA
Procedure: as §1, §2, §3, §4, §5

[11] = tested on: E. coli 1440
Procedure: as §1, §2, §3, §4, §5

[12] = tested on: Ps. aeruginosa 1202
Procedure: as §1, §2, §3, §4, §5

[13] = tested on: Ps. aeruginosa 1959
Procedure: as §1, §2, §3, §4, §5

[14] = tested on: Moraxella sp.834
Procedure: as §1, §2, §3, §4, §5

[15] = tested on: E. faecium 24
Procedure: as §1, §2, §3, §4, §5

[16] = tested on: Kl. pneumoniae 1435 PR
Procedure: as §1, §2, §3, §4, §5

[17] = tested on: S. aureus 20
Procedure: as §1, §2, §3, §4, §5

[18] = tested on: S. aureus 1167 MRSA
Procedure: as §1, §2, §3, §4, §5

[19] = tested on: Kl. pneumoniae
Procedure: as §1, §2, §3, §4, §5

[20] = tested on: Ps. aeruginosa 2869
Procedure: as §1, §2, §3, §4, §5

[21] = tested on: Serratia spp. 15
Procedure: as §1, §2, §3, §4, §5

[22] = tested on: E. faecium 29
Procedure: as §1, §2, §3, §4, §5

For `CCCCCCCCCCCCCC(=O)NCCC[N+](C)(C)Cc1ccccc1.O.[Cl-]` [Miramistin, benzyldimethyl [3-(myristoylamino)propyl]-ammonium chloride monohydrate], the MIC ([1]; Staphylococcus aureus, MRSA) was 4 µg/mL, the MIC ([2]; Enterococcus faecium, 27) was 32 µg/mL and the MIC ([3]; Staphylococcus aureus, 1053A) was 4 to 8 µg/mL. The MIC ([4]; Staphylococcus aureus, MRSA) was 8 µg/mL, the MIC ([5]; Staphylococcus aureus, MRSA) was 8 µg/mL and the MIC [6] was 8 µg/mL. For the same compound, the MIC ([7]; Klebsiella pneumoniae, 645PR) was 64 µg/mL, the MIC ([8]; Pseudomonas, SPP.5) was greater than 64 µg/mL and the MIC ([9]; Moraxella, SP.713) was 32 µg/mL. It also gave an MIC ([10]; Staphylococcus aureus, MRSA) of 8 µg/mL, an MIC ([11]; Escherichia coli, 1440) of 64 µg/mL and an MIC ([12]; Pseudomonas aeruginosa, 1202) greater than 64 µg/mL. It also gave an MIC ([13]; Pseudomonas aeruginosa, 1959) of 64 µg/mL, an MIC ([14]; Moraxella, SP.834) of 32 µg/mL and an MIC ([15]; Enterococcus faecium, 24) of 16 µg/mL. For the same compound, the MIC ([16]; Klebsiella pneumoniae, 1435PR) was 64 µg/mL, the MIC ([17]; Staphylococcus aureus, 20) was 32 µg/mL and the MIC ([18]; Staphylococcus aureus, MRSA) was 4 µg/mL. The MIC ([19]; Klebsiella pneumoniae) was greater than 64 µg/mL, the MIC ([20]; Pseudomonas aeruginosa, 2869) was 64 µg/mL and the MIC ([21]; Serratia, SPP.15) was greater than 64 µg/mL. For the same compound, the MIC ([22]; Enterococcus faecium, 29) was 8 µg/mL.
`CCCCCCCCCCCC[N+](C)(C)Cc1cnc(C[N+](C)(C)CCCCCCCCCCCC)c2c1COC(CC)O2` (stereo not drawn) [Compound I, 5,8-(Bis(methylene (N, N-dimethyl-N-dodecylammonium))-2-ethyl-4H-[1,3]dioxino [4,5-c]pyridiniumdichloride] gave an MIC ([1]; Staphylococcus aureus, S. aureus 1130 MRSA, inoculum 10^7 CFU/ml, read-out: MIC) of 2 µg/mL, an MIC ([2]; Enterococcus faecium, E. faecium 27, inoculum 10^7 CFU/ml, read-out: MIC) of 0.03 µg/mL and an MIC ([3]; Staphylococcus aureus, S. aureus 1053a, inoculum 10^7 CFU/ml, read-out: MIC) of 2 µg/mL. The MIC ([4]; Staphylococcus aureus, S. aureus 1145 MRSA, inoculum 10^7 CFU/ml, read-out: MIC) was 2 µg/mL, the MIC ([5]; Staphylococcus aureus, S. aureus 1134 MRSA, inoculum 10^7 CFU/ml, read-out: MIC) was 2 µg/mL and the MIC ([6]; S. intermedius 1143 MRSA, inoculum 10^7 CFU/ml, read-out: MIC) was 4 µg/mL. For the same compound, the MIC ([7]; Klebsiella pneumoniae, Kl. pneumoniae 645 PR, inoculum 10^7 CFU/ml, read-out: MIC) was 32 µg/mL, the MIC ([8]; Pseudomonas spp. 5, inoculum 10^7 CFU/ml, read-out: MIC) was 8 µg/mL and the MIC ([9]; Moraxella sp. 713, inoculum 10^7 CFU/ml, read-out: MIC) was 8 µg/mL. The MIC ([10]; Staphylococcus aureus, S. aureus 2020 MRSA, inoculum 10^7 CFU/ml, read-out: MIC) was 4 µg/mL, the MIC ([11]; Escherichia coli, E. coli 1440, inoculum 10^7 CFU/ml, read-out: MIC) was 32 µg/mL and the MIC ([12]; Pseudomonas aeruginosa, Ps. aeruginosa 1202, inoculum 10^7 CFU/ml, read-out: MIC) was 32 µg/mL. It also gave an MIC ([13]; Pseudomonas aeruginosa, Ps. aeruginosa 1959, inoculum 10^7 CFU/ml, read-out: MIC) of 32 µg/mL, an MIC ([14]; Moraxella sp.834, inoculum 10^7 CFU/ml, read-out: MIC) of 4 µg/mL and an MIC ([15]; Enterococcus faecium, E. faecium 24, inoculum 10^7 CFU/ml, read-out: MIC) of 0.03 µg/mL. The MIC ([16]; Klebsiella pneumoniae, Kl. pneumoniae 1435 PR, inoculum 10^7 CFU/ml, read-out: MIC) was 32 µg/mL, the MIC ([17]; Staphylococcus aureus, S. aureus 20, inoculum 10^7 CFU/ml, read-out: MIC) was 4 µg/mL and the MIC ([18]; Staphylococcus aureus, S. aureus 1167 MRSA, inoculum 10^7 CFU/ml, read-out: MIC) was 4 µg/mL. For the same compound, the MIC ([19]; Klebsiella pneumoniae, Kl. pneumoniae, inoculum 10^7 CFU/ml, read-out: MIC) was 2 µg/mL, the MIC ([20]; Pseudomonas aeruginosa, Ps. aeruginosa 2869, inoculum 10^7 CFU/ml, read-out: MIC) was 32 µg/mL and the MIC ([21]; Serratia spp. 15, inoculum 10^7 CFU/ml, read-out: MIC) was 16 µg/mL. It also gave an MIC ([22]; Enterococcus faecium, E. faecium 29, inoculum 10^7 CFU/ml, read-out: MIC) of 0.03 µg/mL.
“alkyldimethyl(phenylmethyl) ammonium chloride [Benzalconium chloride]” was tested, and the MIC ([1]; S. aureus 1130 MRSA, inoculum 10^7 CFU/ml) was 2 µg/mL, the MIC ([2]; E. faecium 27, inoculum 10^7 CFU/ml) was 0.5 µg/mL and the MIC ([3]; S. aureus 1053a, inoculum 10^7 CFU/ml) was 1 µg/mL. For the same compound, the MIC ([4]; S. aureus 1145 MRSA, inoculum 10^7 CFU/ml) was 2 µg/mL, the MIC ([5]; S. aureus 1134 MRSA, inoculum 10^7 CFU/ml) was 2 µg/mL and the MIC ([6]; S. intermedius 1143 MRSA, inoculum 10^7 CFU/ml) was 4 µg/mL. The MIC ([7]; Kl. pneumoniae 645 PR, inoculum 10^7 CFU/ml) was 16 µg/mL, the MIC ([8]; Pseudomonas spp. 5, inoculum 10^7 CFU/ml) was 32 µg/mL and the MIC ([9]; Moraxella sp. 713, inoculum 10^7 CFU/ml) was 4 µg/mL. It also gave an MIC ([10]; S. aureus 2020 MRSA, inoculum 10^7 CFU/ml) of 4 µg/mL, an MIC ([11]; E. coli 1440, inoculum 10^7 CFU/ml) of 32 µg/mL and an MIC ([12]; Ps. aeruginosa 1202, inoculum 10^7 CFU/ml) greater than 64 µg/mL. It also gave an MIC ([13]; Ps. aeruginosa 1959, inoculum 10^7 CFU/ml) greater than 64 µg/mL, an MIC ([14]; Moraxella sp.834, inoculum 10^7 CFU/ml) of 2 µg/mL and an MIC ([15]; E. faecium 24, inoculum 10^7 CFU/ml) of less than 0.5 µg/mL. It also gave an MIC ([16]; Kl. pneumoniae 1435 PR, inoculum 10^7 CFU/ml) of 32 µg/mL, an MIC ([17]; S. aureus 20, inoculum 10^7 CFU/ml) of less than 0.5 µg/mL and an MIC ([18]; S. aureus 1167 MRSA, inoculum 10^7 CFU/ml) of 2 µg/mL. For the same compound, the MIC ([19]; Kl. pneumoniae, inoculum 10^7 CFU/ml) was greater than 64 µg/mL, the MIC ([20]; Ps. aeruginosa 2869, inoculum 10^7 CFU/ml) was 64 µg/mL and the MIC ([21]; Serratia spp. 15, inoculum 10^7 CFU/ml) was 2 µg/mL. For the same compound, the MIC ([22]; E. faecium 29, inoculum 10^7 CFU/ml) was less than 0.5 µg/mL.
